Reference: ChEMBL document CHEMBL5257044, “Arylnaphthalene Lignans with Anti-SARS-CoV-2 and Antiproliferative Activities from the Underground Organs of Linum austriacum and Linum perenne” (J Nat Prod, 2023)

Test system: A549
Experiment: Cytotoxicity against human A549 cells incubated for 24 hrs by AlamarBlue staining based analysis
Format: functional, cell-based
Details: A549, 24 h

Row | Compound | IC50
1 | COc1cc([C@@H]2c3cc4c(cc3[C@@H](O[C@@H]3O[C@@H]5CO[C@@H](C)O[C@H]5[C@H](O)[C@H]3O)[C@H]3COC(=O)[C@H]23)OCO4)cc(OC)c1O [ETOPOSIDE] | > 100 µM

Test system: NCI-H838
Experiment: Cytotoxicity against human NCI-H838 cells incubated for 24 hrs by AlamarBlue staining based analysis
Format: functional, cell-based
Details: NCI-H838, 24 h

Row | Compound | IC50
2 | COc1cc([C@@H]2c3cc4c(cc3[C@@H](O[C@@H]3O[C@@H]5CO[C@@H](C)O[C@H]5[C@H](O)[C@H]3O)[C@H]3COC(=O)[C@H]23)OCO4)cc(OC)c1O [ETOPOSIDE] | > 100 µM

Test system: SARS-CoV-2
Experiment: Antiviral activity against SARS-COV2 EPI_ISL_1172022 infected in african green monkey Vero E6 cells assessed as inhibition of viral replication incubated for 48 hrs by RT-qPCR analysis
Format: functional, organism-based
Details: Severe acute respiratory syndrome coronavirus 2, EPI_ISL_1172022, Vero C1008, 48 h

Row | Compound | IC50
3 | CCN(CC)CCCC(C)Nc1ccnc2cc(Cl)ccc12 (stereo not drawn) [CHLOROQUINE] | 50.2 µM
4 | CC(C)C(=O)OC[C@H]1O[C@@H](n2cc/c(=N\O)[nH]c2=O)[C@H](O)[C@@H]1O [MOLNUPIRAVIR] | > 100 µM
5 | CC(=O)Oc1ccccc1C(=O)Nc1ncc([N+](=O)[O-])s1 [NITAZOXANIDE] | 82.7 µM

Test system: HT-29
Experiment: Cytotoxicity against human HT-29 cells incubated for 24 hrs by AlamarBlue staining based analysis
Format: functional, cell-based
Details: HT-29, 24 h

Row | Compound | IC50
6 | COc1cc([C@@H]2c3cc4c(cc3[C@@H](O[C@@H]3O[C@@H]5CO[C@@H](C)O[C@H]5[C@H](O)[C@H]3O)[C@H]3COC(=O)[C@H]23)OCO4)cc(OC)c1O [ETOPOSIDE] | 18.5 µM

Test system: MONO-MAC-6
Experiment: Cytotoxicity against human MONO-MAC-6 cells incubated for 24 hrs by AlamarBlue staining based analysis
Format: functional, cell-based
Details: MONO-MAC-6, 24 h

Row | Compound | IC50
7 | COc1cc([C@@H]2c3cc4c(cc3[C@@H](O[C@@H]3O[C@@H]5CO[C@@H](C)O[C@H]5[C@H](O)[C@H]3O)[C@H]3COC(=O)[C@H]23)OCO4)cc(OC)c1O [ETOPOSIDE] | 2.2 µM

Test system: PC-3
Experiment: Cytotoxicity against human PC-3 cells incubated for 24 hrs by AlamarBlue staining based analysis
Format: functional, cell-based
Details: PC-3, 24 h

Row | Compound | IC50
8 | COc1cc([C@@H]2c3cc4c(cc3[C@@H](O[C@@H]3O[C@@H]5CO[C@@H](C)O[C@H]5[C@H](O)[C@H]3O)[C@H]3COC(=O)[C@H]23)OCO4)cc(OC)c1O [ETOPOSIDE] | 8 µM

Test system: HepG2
Experiment: Cytotoxicity against human HepG2 cells incubated for 24 hrs by AlamarBlue staining based analysis
Format: functional, cell-based
Details: HepG2, 24 h

Row | Compound | IC50
9 | COc1cc([C@@H]2c3cc4c(cc3[C@@H](O[C@@H]3O[C@@H]5CO[C@@H](C)O[C@H]5[C@H](O)[C@H]3O)[C@H]3COC(=O)[C@H]23)OCO4)cc(OC)c1O [ETOPOSIDE] | 20.9 µM

Test system: EBC-1
Experiment: Cytotoxicity against human EBC-1 cells incubated for 24 hrs by AlamarBlue staining based analysis
Format: functional, cell-based
Details: EBC-1, 24 h

Row | Compound | IC50
10 | COc1cc([C@@H]2c3cc4c(cc3[C@@H](O[C@@H]3O[C@@H]5CO[C@@H](C)O[C@H]5[C@H](O)[C@H]3O)[C@H]3COC(=O)[C@H]23)OCO4)cc(OC)c1O [ETOPOSIDE] | 15.7 µM

Test system: A2058
Experiment: Cytotoxicity against human A2058 cells incubated for 24 hrs by AlamarBlue staining based analysis
Format: functional, cell-based
Details: A2058, 24 h

Row | Compound | IC50
11 | COc1cc([C@@H]2c3cc4c(cc3[C@@H](O[C@@H]3O[C@@H]5CO[C@@H](C)O[C@H]5[C@H](O)[C@H]3O)[C@H]3COC(=O)[C@H]23)OCO4)cc(OC)c1O [ETOPOSIDE] | 8.9 µM

Test system: not listed separately
Experiment: Cytotoxicity against human U87 cells incubated for 24 hrs by AlamarBlue staining based analysis
Format: functional, cell-based, U-87MG ATCC
Details: U-87 MG

Row | Compound | IC50
12 | COc1cc([C@@H]2c3cc4c(cc3[C@@H](O[C@@H]3O[C@@H]5CO[C@@H](C)O[C@H]5[C@H](O)[C@H]3O)[C@H]3COC(=O)[C@H]23)OCO4)cc(OC)c1O [ETOPOSIDE] | 27 µM

Test system: Calu-1
Experiment: Cytotoxicity against human Calu-1 cells incubated for 24 hrs by AlamarBlue staining based analysis
Format: functional, cell-based
Details: Calu-1, 24 h

Row | Compound | IC50
13 | COc1cc([C@@H]2c3cc4c(cc3[C@@H](O[C@@H]3O[C@@H]5CO[C@@H](C)O[C@H]5[C@H](O)[C@H]3O)[C@H]3COC(=O)[C@H]23)OCO4)cc(OC)c1O [ETOPOSIDE] | > 100 µM
